Assay results from patent publication US20090280160A1, “PHENYLEPHRINE PHARMACEUTICAL FORMULATIONS AND COMPOSITIONS FOR TRANSMUCOSAL ABSORPTION” (Schering-Plough Healthcare Products, Inc., priority 2007, published 2009).
“Also recorded” adds a separate entry of the source.

Columns and labels:
[1] = target: T1, α1a adrenoreceptor (Homo sapiens, UniProt P35348); assay: Cellular calcium flux (FLIPR), α1a expressing CHO cells; format: cell-based; settings: for increase in intracellular calcium, α1a calcium assay (in words): α1a expressing CHO cells
T1 construct: expressed in transfected cells
T1 sequence (P35348 1-466): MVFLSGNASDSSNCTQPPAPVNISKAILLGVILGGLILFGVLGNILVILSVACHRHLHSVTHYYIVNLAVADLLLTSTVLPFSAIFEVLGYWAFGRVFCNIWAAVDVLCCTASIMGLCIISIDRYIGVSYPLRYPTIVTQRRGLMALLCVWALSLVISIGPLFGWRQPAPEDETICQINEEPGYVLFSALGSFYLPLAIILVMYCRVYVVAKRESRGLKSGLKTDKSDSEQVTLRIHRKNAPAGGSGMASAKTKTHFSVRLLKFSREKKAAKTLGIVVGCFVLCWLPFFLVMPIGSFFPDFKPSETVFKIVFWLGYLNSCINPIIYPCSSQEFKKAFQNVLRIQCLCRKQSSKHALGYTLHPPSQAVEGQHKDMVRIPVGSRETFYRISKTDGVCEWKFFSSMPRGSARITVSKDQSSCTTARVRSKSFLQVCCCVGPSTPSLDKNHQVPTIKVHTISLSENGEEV
Protocol: (§1) The affinity and activity of phenylephrine metabolites were evaluated in human recombinant α1 and α2 adrenoreceptor binding and activity assays. […] Affinity of the metabolites was determined by receptor binding assays. Functional activity of the metabolites was assessed using an [^35S]-GTPγS binding exchange assay for the α2 receptor subtypes and a cell-based calcium flux response for the α1 receptor subtypes.
Intracellular calcium levels were measured using a fluorometric imaging plate reader (FLIPR). Cells expressing α1 adrenoreceptors were cultured overnight at 15,000 cells/well in 96 well black-wall clear bottom plates (Packard). Adherent cells were loaded for 1 hour at 37° C. using the FLIPR Calcium Plus Assay Kit (Molecular Probes, Eugene, Oreg.), which included 2.5 mM probenecid (Sigma). Compounds (at 10 mM in 100% DMSO) were diluted in diluting buffer (HBSS, 20 mM HEPES, 2.5 mM probenecid, 0.5% BSA, pH 7.4). A titration of norepinephrine was included in every experiment and norepinephrine (at 1 μM) was also used as a plate standard on each assay plate. Cells were maintained at 37° C. throughout all calcium measurements. Fluorescence data was collected at 1 second interval for 60 seconds, followed by collection at 2 second intervals for 30 seconds. Background fluorescence was quantitated in wells containing cells with no additions and was subtracted from all experimental samples. All conditions were done in quadruplicate. Non-linear regression analysis using GraphPad Prism was used to calculate EC50 values.
(§2) Each metabolite was evaluated in each assay in at least 2 independent experiments and a representative assay of each metabolite/assay combination is shown.

[2] = target: T2, α2a adrenoreceptor (Homo sapiens, UniProt P08913); assay: [35S]-GTPγS binding exchange, α2a CHO cell membranes; format: biochemical; settings: for stimulation of [35S]-GTPγS binding, α2a (in words): CHO cell membranes
T2 construct: expressed in transfected cells; host or cells: CHO (Chinese hamster ovary) cells, membranes
T2 sequence (P08913 1-465): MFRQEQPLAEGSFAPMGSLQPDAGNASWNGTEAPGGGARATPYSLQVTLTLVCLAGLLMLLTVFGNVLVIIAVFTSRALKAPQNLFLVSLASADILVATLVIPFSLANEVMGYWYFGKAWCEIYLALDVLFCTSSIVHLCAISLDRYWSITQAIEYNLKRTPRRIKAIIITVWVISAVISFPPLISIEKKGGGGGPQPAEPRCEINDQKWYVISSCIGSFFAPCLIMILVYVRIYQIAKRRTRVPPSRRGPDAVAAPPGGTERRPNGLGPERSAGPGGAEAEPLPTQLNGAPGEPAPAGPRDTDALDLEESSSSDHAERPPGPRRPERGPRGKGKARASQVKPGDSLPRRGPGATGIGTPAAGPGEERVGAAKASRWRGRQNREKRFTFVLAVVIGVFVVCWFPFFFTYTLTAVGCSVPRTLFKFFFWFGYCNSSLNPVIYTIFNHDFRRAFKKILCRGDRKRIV
Protocol: as §1
Plates were counted on a Packard TopCount. The percent increase over basal binding of [^35S]-GTPγS, a measure of efficacy, was calculated as follows: 100×[[mean total sample cpm−basal cpm]÷by basal cpm]. Basal cpm was defined as the mean cpm in the absence of agonist compound minus the mean non-specific binding cpm.
as §2

[3] = oral, approximately 24 mg of PE, healthy volunteers; cited from earlier work
[4] = target: T2, α2a adrenoreceptor; assay: Competition binding, [3H]-UK14304, α2a CHO cell membranes; settings: for inhibition of [3H]-UK14304 binding, α2a (in words): CHO cell membranes
Protocol: as §1
(§3) Competition Binding Assays
(§4) Competition binding assays for the α2 adrenoreceptors were performed using 20 μg membrane protein per well in binding buffer (75 mM Tris-HCl pH 7.4, 12.5 mM MgCl2, […] EDTA, 0.2% bovine serum albumin). […] Binding was terminated by rapid filtration through GF/C unifilter plates, presoaked with 0.3% polyethylenimine, with five washes with 0.5 ml cold 50 mM Tris-HCl ph 7.4, using a Packard Filtermate Harvester. After drying, bound radioactivity was determined by liquid scintillation counting (Packard TopCount) with Microscint 20, 50 μl/well. Binding data were analyzed using GraphPad Prism.
as §2

[5] = target: T1, α1a adrenoreceptor; assay: Competition binding, [3H]-prazosin, α1a CHO cell membranes
[6] = target: T3, α2c adrenoreceptor (Homo sapiens, UniProt P18825); assay: Competition binding, [3H]-UK14304, α2c CHO cell membranes; settings: for inhibition of [3H]-UK14304 binding, α2c (in words): CHO cell membranes
T3 construct: expressed in transfected cells; host or cells: CHO (Chinese hamster ovary) cells, membranes
T3 sequence (P18825 1-462): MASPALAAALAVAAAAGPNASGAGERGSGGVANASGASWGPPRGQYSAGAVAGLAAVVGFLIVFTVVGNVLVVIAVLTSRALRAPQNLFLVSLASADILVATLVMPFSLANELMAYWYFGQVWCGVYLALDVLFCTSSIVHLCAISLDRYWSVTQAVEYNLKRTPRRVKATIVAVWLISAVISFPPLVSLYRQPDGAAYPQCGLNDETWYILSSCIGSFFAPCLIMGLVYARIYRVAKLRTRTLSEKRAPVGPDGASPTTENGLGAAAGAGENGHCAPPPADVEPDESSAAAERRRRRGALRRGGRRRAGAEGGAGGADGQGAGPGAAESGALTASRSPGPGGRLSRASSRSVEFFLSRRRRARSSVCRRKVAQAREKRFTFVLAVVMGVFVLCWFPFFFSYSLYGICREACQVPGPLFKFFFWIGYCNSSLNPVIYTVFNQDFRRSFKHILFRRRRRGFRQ
Protocol: as §1, §3, §4, §2

[7] = highest concentration evaluated (10 μM)
[8] = at 100 μM (highest concentration evaluated)
[9] = listed as PE glucuronide batch 4

O=C(O)C(O)c1cccc(O)c1 (stereo not shown) [3-hydroxymandelic acid]
agonist activity, α1a calcium assay (in words) [1, 7]: no activity
increase in intracellular calcium, α1a calcium assay (in words) [1]: not active
EC50 ([1]; α1a-expressing CHO cells, read-out: EC50, a1a Calcium (class symbol)): > 10 µM
stimulation of [35S]-GTPγS binding, α2a (in words) [2]: no activity
agonist activity, α2a [35S]-GTPγS assay (in words) [2, 7]: no activity
EC50 ([2]; read-out: EC50, a2a GTPγS (class symbol)): > 10 µM
metabolite excreted in the urine [3]: 30 % of dose
inhibition of [3H]-UK14304 binding, α2a (in words) [4]: no significant binding
Ki ([4]; [3H]-UK14304, read-out: Ki, a2a Binding (class symbol)): > 100 µM
binding / affinity, α2a receptor (in words) [4, 8]: no affinity
Ki ([5]; [3H]-prazosin, read-out: Ki, a1a Binding (class symbol)): > 100 µM
binding / affinity, α1a receptor (in words) ([5]; concentrations up to 100 μM): No appreciable binding; also recorded: no affinity
inhibition of [3H]-UK14304 binding, α2c (in words) [6]: but not; also recorded: no significant binding
Ki ([6]; [3H]-UK14304, read-out: Ki, a2c Binding (class symbol)): > 100 µM
binding / affinity, α2c receptor (in words) [6, 8]: no affinity

CNC[C@H](O)c1cccc(O[C@@H]2O[C@H](C(=O)O)[C@@H](O)[C@H](O)[C@H]2O)c1 [PE glucuronide, (R)-PE glucuronide]
fold less potent than PE in inducing a calcium increase, α1a cells ([1]; batch b4, approximately 0.28% PE): 300-450 fold
increase in intracellular calcium, α1a calcium assay (in words) [1]: consistent with level of contaminating phenylephrine; also recorded: pharmacologically inactive
increase in intracellular calcium, α1a calcium assay (in words) [1, 9]: minimal activity
stimulation of [35S]-GTPγS binding, α2a (in words) [2]: nor did it activate binding; also recorded: pharmacologically inactive
activity in α2a [35S]-GTPγS assay (in words) ([2]; highest concentration, 100 μM): very weak binding
metabolite excreted in the urine [3]: 12 % of dose
inhibition of [3H]-UK14304 binding, α2a (in words) [4]: weakly inhibits binding; also recorded: pharmacologically inactive
inhibition of [3H]-UK14304 binding, α2a (in words) ([4]; listed as PE glucuronide b4): A small amount of binding
inhibition of [3H]-UK14304 binding, α2a (in words) [4, 9]: minimal activity
inhibition of 3H-prazosin binding, α1a (in words) ([5]; CHO cell membranes): No appreciable binding; also recorded: no binding affinity; also recorded: pharmacologically inactive
inhibition of [3H]-UK14304 binding, α2c (in words) [6]: weakly inhibits binding; also recorded: pharmacologically inactive
inhibition of [3H]-UK14304 binding, α2c (in words) ([6]; listed as PE glucuronide b4): A small amount of binding
inhibition of [3H]-UK14304 binding, α2c (in words) [6, 9]: minimal activity
